Consider eleven compounds from ChEMBL document CHEMBL1201862, “PubChem BioAssay data set” (2004).

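48-hour exposure; five concentrations; linearly interpolated endpoints. Here, GI50 denotes the concentration required for 50% inhibition of growth.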 Calls of active or inactive are those of the source. No stated cut-off is given here; in the data, active = GI50 up to about 1.1 µM and inactive = higher. A value given as a limit tells only on which side of the number the result lay.

Among the test systems are SF-295; OVCAR-4; UO-31; SR; A549; K562; RXF 393; HOP-92; KM12; U-251; SK-MEL-2; BT-549; SK-MEL-28; MDA-MB-435; HOP-62; SW-620; ACHN; HL-60; A498.
What all share (assay): NCI-60 cell line screen, 48 h

As for `COc1cc(/C=C2/C[C@H]3[C@@H]4CC=C5C[C@@H](OC(C)=O)CC[C@]5(C)[C@H]4CC[C@]3(C)NC2=O)cc(OC)c1OC`, the GI50 in the assay with SF-295 is 26.8 µM (inactive); in the assay on OVCAR-4, 17.4 µM (inactive); in the assay on UO-31, 18.1 µM (inactive); in the assay on SR, 47.6 µM (inactive); in the assay with A549 it was 18 µM (inactive); in the assay on K562 it was 45.3 µM (inactive). The GI50 was 17.3 µM (inactive) in the assay with RXF 393; 24.6 µM (inactive) in the assay on HOP-92; 47.4 µM (inactive) in the assay with KM12; 19.5 µM (inactive) in the assay with U-251; 18.7 µM (inactive) with SK-MEL-2; 22.5 µM (inactive) in the assay on BT-549. For the same compound, the GI50 in the assay with SK-MEL-28 is 26.2 µM (inactive); in the assay on MDA-MB-435, 36.3 µM (inactive); in the assay on HOP-62, 26.6 µM (inactive); in the assay with SW-620, 54 µM (inactive); in the assay with ACHN it was 19.1 µM (inactive).

Take `COC(=O)[C@]1(C)CCC[C@@]2(C)C1CC[C@@]13C=C(C(C)C)[C@@H](CC1=O)CC23` (stereo partly specified): the GI50 in the assay on HL-60 is 19.8 µM (inactive); with SF-295, 30.6 µM (inactive); in the assay with OVCAR-4, 35.2 µM (inactive); in the assay on UO-31, 21.7 µM (inactive); in the assay with SR it was 15.5 µM (inactive); with A549 it was 29.2 µM (inactive). Moreover, the GI50 with K562 is 13.8 µM (inactive); with RXF 393, 21.5 µM (inactive); in the assay on KM12, 34.5 µM (inactive); in the assay with U-251, 18.7 µM (inactive); in the assay on BT-549, 23 µM (inactive); in the assay on SK-MEL-28, 41.3 µM (inactive). Also, the GI50 was 35.6 µM (inactive) with MDA-MB-435, 30.6 µM (inactive) in the assay on HOP-62, 27.3 µM (inactive) in the assay on SW-620 and 18.6 µM (inactive) with ACHN.

Regarding `O=C(/C=C/c1ccccc1)CCN1CCN(CCC(=O)/C=C/c2ccccc2)CC1`, the GI50 was 3.64 µM (inactive) with HL-60; 18.9 µM (inactive) with A498; 17.2 µM (inactive) in the assay with SF-295; 16.5 µM (inactive) in the assay on OVCAR-4; 16.9 µM (inactive) in the assay with UO-31; 30.9 µM (inactive) with A549. Further, the GI50 in the assay with K562 was 3.97 µM (inactive); in the assay with RXF 393, 13.7 µM (inactive); with HOP-92, 19.6 µM (inactive); in the assay on KM12, 4.82 µM (inactive); with U-251, 16.7 µM (inactive); in the assay with SK-MEL-2 it was 17.9 µM (inactive). Besides, the GI50 was 15.1 µM (inactive) with BT-549; 14.2 µM (inactive) in the assay with SK-MEL-28; 3.72 µM (inactive) in the assay with MDA-MB-435; 22.6 µM (inactive) with HOP-62; 4.67 µM (inactive) with SW-620; 16 µM (inactive) in the assay on ACHN.

As for `CC(=O)Nc1ccc(C(=O)N[C@@H]2C(=O)N3[C@@H]2SC(C)(C)[C@@H]3C(=O)O)cn1`, the GI50 in the assay with HL-60, with A498, in the assay on SF-295, in the assay with OVCAR-4, with UO-31 and in the assay on A549 was > 100 µM (inactive) each time. Also, the GI50 with K562, in the assay with RXF 393, with HOP-92, with KM12, with U-251 and in the assay on SK-MEL-2 was > 100 µM (inactive) each time. Also, the GI50 in the assay with BT-549, in the assay on SK-MEL-28, with MDA-MB-435, with HOP-62, in the assay with SW-620 and with ACHN was > 100 µM (inactive) throughout.

Consider `CC(C)CCC[C@@H](C)[C@H]1CC[C@H]2[C@@H]3CC=C4C[C@@H](OC(=O)c5cccc6c(=O)c7ccccc7[nH]c56)CC[C@]4(C)[C@H]3CC[C@]12C`, for which the GI50 with A498 is > 75 µM (inactive); in the assay on SF-295 it was > 75 µM (inactive); with OVCAR-4, 3.5 µM (inactive); in the assay on UO-31, > 75 µM (inactive); with SR, > 75 µM (inactive); in the assay on A549 it was > 75 µM (inactive). Also, the GI50 with K562 was 43.7 µM (inactive); with RXF 393 it was > 75 µM (inactive); in the assay with HOP-92 it was > 75 µM (inactive); with KM12 it was > 75 µM (inactive); with U-251, > 75 µM (inactive); in the assay on SK-MEL-2 it was > 75 µM (inactive). Further, the GI50 was > 75 µM (inactive) with BT-549; > 75 µM (inactive) in the assay on SK-MEL-28; > 75 µM (inactive) in the assay with MDA-MB-435; 34.9 µM (inactive) in the assay with HOP-62; > 75 µM (inactive) in the assay with SW-620; > 75 µM (inactive) with ACHN.

For the compound `CC(=O)OCc1ccc2oc(=O)c(C(=O)Oc3cccc(Cl)c3)cc2c1`, the GI50 in the assay with SF-295 is > 100 µM (inactive); in the assay on OVCAR-4, > 100 µM (inactive); with UO-31 it was 22.1 µM (inactive); in the assay with SR it was 44.8 µM (inactive); in the assay with A549, > 100 µM (inactive); with K562, 23.9 µM (inactive). In addition, the GI50 was 33.7 µM (inactive) with RXF 393; 20.6 µM (inactive) in the assay with HOP-92; 61.5 µM (inactive) with KM12; > 100 µM (inactive) in the assay on U-251; 82.4 µM (inactive) in the assay on SK-MEL-2; > 100 µM (inactive) in the assay with BT-549. The GI50 in the assay on SK-MEL-28 is 83 µM (inactive); with MDA-MB-435, 64.4 µM (inactive); in the assay on HOP-62 it was 99.1 µM (inactive); in the assay with SW-620, 56.4 µM (inactive); with ACHN, 38.2 µM (inactive).

For `O=C(O)c1ccccc1Sc1ccccc1[N+](=O)[O-]`, the GI50 in the assay with HL-60, in the assay with A498, in the assay with SF-295, in the assay with OVCAR-4, in the assay on UO-31 and in the assay on A549 was > 100 µM (inactive) in each case. The GI50 in the assay with K562, in the assay with RXF 393, with HOP-92, with KM12, in the assay with U-251 and in the assay with SK-MEL-2 was > 100 µM (inactive) each time. The GI50 with BT-549, with SK-MEL-28, with MDA-MB-435, in the assay on HOP-62, in the assay with SW-620 and with ACHN was > 100 µM (inactive) in each case.

`CC(=O)/C=C/CCC(=O)/C=C/C(=O)OC(CCC(=O)/C=C/C(=O)O)CC(C)=O` (stereo unspecified): the GI50 in the assay with HL-60 was 32.8 µM (inactive); in the assay on SF-295, > 100 µM (inactive); in the assay with OVCAR-4, > 100 µM (inactive); with SR, 88.9 µM (inactive); in the assay on A549, > 100 µM (inactive); in the assay with K562, > 100 µM (inactive). Besides, the GI50 in the assay with RXF 393, in the assay with HOP-92, in the assay with KM12, in the assay on U-251, with BT-549 and in the assay with SK-MEL-28 was > 100 µM (inactive) throughout. Moreover, the GI50 in the assay with MDA-MB-435, in the assay with HOP-62, with SW-620 and with ACHN was > 100 µM (inactive) throughout.

Take `Cc1cccc(Cl)c1NCC(O)CN1CCN(C)CC1` (stereo unspecified): the GI50 in the assay on A498, in the assay on SF-295, in the assay with OVCAR-4, in the assay on UO-31, in the assay on SR and with A549 was > 100 µM (inactive) throughout. Further, the GI50 in the assay with K562, in the assay with RXF 393, in the assay on HOP-92, in the assay with KM12, with U-251 and in the assay on SK-MEL-2 was > 100 µM (inactive) throughout. The GI50 in the assay on BT-549, in the assay with SK-MEL-28, in the assay with MDA-MB-435, with HOP-62, with SW-620 and with ACHN was > 100 µM (inactive) in each case.

On to `Cn1cc(NC(=O)Nc2cc(C(=O)Nc3cc(C(=O)Nc4cc(S(=O)(=O)O)c5cc(S(=O)(=O)O)cc(S(=O)(=O)O)c5c4)n(C)c3)n(C)c2)cc1C(=O)Nc1cc(C(=O)Nc2cc(S(=O)(=O)O)c3cc(S(=O)(=O)O)cc(S(=O)(=O)O)c3c2)n(C)c1`, for which the GI50 is > 100 µM (inactive) with HL-60; > 100 µM (inactive) in the assay on SF-295; > 100 µM (inactive) with OVCAR-4; 78.5 µM (inactive) with UO-31; > 100 µM (inactive) in the assay on SR; > 100 µM (inactive) in the assay on A549. The GI50 with K562 is > 100 µM (inactive); with RXF 393 it was > 100 µM (inactive); in the assay on HOP-92, 62.7 µM (inactive); with KM12, > 100 µM (inactive); in the assay with U-251, > 100 µM (inactive); in the assay with BT-549, > 100 µM (inactive). Further, the GI50 in the assay on SK-MEL-28, with MDA-MB-435, in the assay with HOP-62, in the assay on SW-620 and in the assay on ACHN was > 100 µM (inactive) throughout.

In the case of `Nc1nc(N)c2nc(CNc3ccc(C(=O)NC(CCCCNC(=O)c4ccccc4C(=O)O)C(=O)O)cc3)cnc2n1` (stereo unspecified), the GI50 in the assay on A498 was 0.0738 µM (active); in the assay on SF-295, < 0.0332 µM (active); in the assay on OVCAR-4 it was > 100 µM (inactive); in the assay with UO-31, 0.00776 µM (active); in the assay with SR, 0.01 µM (active); with A549, 0.01 µM (active). For the same compound, the GI50 in the assay on K562 is 0.01 µM (active); with RXF 393, 0.01 µM (active); in the assay with HOP-92 it was 0.445 µM (active); in the assay with KM12, 0.01 µM (active); in the assay with U-251 it was 0.01 µM (active); in the assay with SK-MEL-2 it was 68.4 µM (inactive). Also, the GI50 in the assay with BT-549 is > 100 µM (inactive); in the assay on SK-MEL-28, < 0.0275 µM (active); with MDA-MB-435, 0.01 µM (active); in the assay with HOP-62 it was 0.01 µM (active); in the assay with SW-620 it was 0.01 µM (active); with ACHN it was 0.01 µM (active).
